Measured values published in ChEMBL document CHEMBL1149482, “Syntheses of triazole-modified zanamivir analogues via click chemistry and anti-AIV activities” (Bioorg Med Chem Lett, 2006).
Active and inactive are the calls of the source. The calls are words filed in the database; no cut-off is given here.

Experiments:
[1] = tested on: MDCK; assay: Antiviral activity against avian influenza virus H5N1 measured as protective rate against MDCK cells at 50 uM by neutral red uptake assay; format: functional
[2] = tested on: MDCK; assay: Antiviral activity against avian influenza virus H5N1 in MDCK cells measured as reduction in infected cells relative to control; format: functional, cell-based; conditions: Canis lupus familiaris

Structure (SMILES) | Activity [1] | EC50 [2] [µM]
CC(=O)N[C@H]1[C@H]([C@H](O)[C@H](O)CO)OC(C(=O)O)=C[C@@H]1n1cc(-c2ccccc2)nn1 | 18.7% | 
CC(=O)N[C@H]1[C@H]([C@H](O)[C@H](O)CO)OC(C(=O)O)=C[C@@H]1n1cc(-c2ccccn2)nn1 | inactive | 
CCc1ccc(-c2cn([C@H]3C=C(C(=O)O)O[C@@H]([C@H](O)[C@H](O)CO)[C@@H]3NC(C)=O)nn2)cc1 | 34.4% | 
CCC(O)c1cn([C@H]2C=C(C(=O)OCCC(C)C)O[C@@H]([C@H](O)[C@H](O)CO)[C@@H]2NC(C)=O)nn1 (some centres undefined) | 8.9% | 
CCCc1ccc(-c2cn([C@H]3C=C(C(=O)O)O[C@@H]([C@H](O)[C@H](O)CO)[C@@H]3NC(C)=O)nn2)cc1 | 22.1% | 
CC(=O)N[C@H]1[C@H]([C@H](O)[C@H](O)CO)OC(C(=O)O)=C[C@@H]1n1cc(C2CC2)nn1 | 8.9% | 
CC(=O)N[C@H]1[C@H]([C@H](O)[C@H](O)CO)OC(C(=O)O)=C[C@@H]1n1cc(-c2ccc(-c3ccccc3)cc2)nn1 | 19.1% | 
CCC(O)c1cn([C@H]2C=C(C(=O)O)O[C@@H]([C@H](O)[C@H](O)CO)[C@@H]2NC(C)=O)nn1 (some centres undefined) | >61.4% | 6.4
CCCOc1ccc(-c2cn([C@H]3C=C(C(=O)O)O[C@@H]([C@H](O)[C@H](O)CO)[C@@H]3NC(C)=O)nn2)cc1 | 40.2% | 
COC(=O)C1=C[C@H](n2cc(C(=O)OC)nn2)[C@@H](NC(C)=O)[C@H]([C@H](O)[C@H](O)CO)O1 | 9.9% | 
CC(=O)N[C@H]1[C@H]([C@H](O)[C@H](O)CO)OC(C(=O)O)=C[C@@H]1n1cc(COc2ccccc2)nn1 | 34.8% | 
CC(=O)N[C@H]1[C@H]([C@H](O)[C@H](O)CO)OC(C(=O)O)=C[C@@H]1n1cc(CCCO)nn1 | 6.3% | 
CC(=O)N[C@H]1[C@H]([C@H](O)[C@H](O)CO)OC(C(=O)O)=C[C@@H]1NC(=N)N [ZANAMIVIR] | 86.1% | 2.8
CC(=O)N[C@H]1[C@H]([C@H](O)[C@H](O)CO)OC(C(=O)O)=C[C@@H]1n1cc(CCO)nn1 | 14.5% | 
CC(=O)N[C@H]1[C@H]([C@H](O)[C@H](O)CO)OC(C(=O)O)=C[C@@H]1n1cc(CN)nn1 | inactive | 
CC(=O)N[C@H]1[C@H]([C@H](O)[C@H](O)CO)OC(C(=O)O)=C[C@@H]1n1cc(-c2ccc(F)cc2)nn1 | inactive | 
CC(=O)N[C@H]1[C@H]([C@H](O)[C@H](O)CO)OC(C(=O)O)=C[C@@H]1n1cc(CN2CCOCC2)nn1 | 17.3% | 
